Laboratory results as given in US8722715B2, “Antimicrobial oxazolidinone, hydantoin and imidazolidinone compositions” (NovaBay Pharmaceuticals, priority 2008, dated 2014).

Key:
Type in all cases: cell-based
[1] = system: Escherichia coli (ATCC 25922); assay: Antimicrobial activity, MBC, E. coli ATCC 25922; details: 1 h at room temperature
Procedure: (§1) To determine antimicrobial activity of compounds of the present disclosure, Escherichia coli (ATCC 25922), Staphylococcus aureus (ATCC 29213), Pseudomonas aeruginosa (ATCC 27853), and Candida albicans (ATCC 10231) were used in primary screening. In addition, Escherichia coli (MCC 80392), Staphylococcus aureus (MCC 91731), Pseudomonas aeruginosa (MCC 4438), and Candida albicans (MCC 50319), provided by Alcon Laboratories, Fort Worth, Tex., were used. The microbial cultures were diluted in sterile saline pH 4 to prepare inocula. Test compounds were titrated by stepwise two-fold dilutions in sterile saline pH 4. A total of 1.0×10^5 to 1.0×10^6 Colony Forming Units (CFU)/mL microbe was added to each tube, mixed by gentle vortexing, and then incubated at room temperature for 1 h. Microbial plating on Petri dishes (Tryptic Soy agar or Saboraud's Dextrose agar) was performed immediately after the designated exposure after neutralization of the test article dilutions in Dey-Engley Broth. Plates were incubated at 37° C., and the numbers of microbes were counted by direct colony count to quantitate the surviving microbes as CFU/mL. Positive growth controls were made with sterile 0.9% saline. Compounds were dissolved in unbuffered isotonic saline (SAL) or phosphate buffered saline (PBS) at pH 4 or pH 7 (using HCl and/or NaOH as needed). All compounds were tested three times. The results are tabulated to show the comparison of antimicrobial effectiveness range of the compounds. Data shown are the Minimum Bactericidal Concentration (MBC) or Minimum Fungicidal Concentration (MFC) (≧99.9% kill) in μg/mL.

[2] = system: Staphylococcus aureus (ATCC 29213); assay: Antimicrobial activity, MBC, S. aureus ATCC 29213; details: 1 h at room temperature
Procedure: as §1

[3] = system: Candida albicans (ATCC 10231); assay: Antimicrobial activity, MFC, C. albicans ATCC 10231; details: 1 h at room temperature
Procedure: as §1

[4] = system: Pseudomonas aeruginosa (ATCC 27853); assay: Antimicrobial activity, MBC, P. aeruginosa ATCC 27853; details: pH 7 (PBS), 1 h at room temperature
Procedure: as §1, with “The results are tabulated to show the comparison of antimicrobial effectiveness range of the compounds. Data shown are the Minimum Bactericidal Concentration (MBC) or Minimum Fungicidal Concentration (MFC) (≧99.9% kill) in μg/mL.” left out

[5] = system: Escherichia coli (MCC 80392); assay: Antimicrobial activity, MBC, E. coli MCC 80392; details: 1 h at room temperature
Procedure: as §1, with “The results are tabulated to show the comparison of antimicrobial effectiveness range of the compounds. Data shown are the Minimum Bactericidal Concentration (MBC) or Minimum Fungicidal Concentration (MFC) (≧99.9% kill) in μg/mL.” left out

[6] = system: Staphylococcus aureus (MCC 91731); assay: Antimicrobial activity, MBC, S. aureus MCC 91731; details: 1 h at room temperature
Procedure: as §1, with “The results are tabulated to show the comparison of antimicrobial effectiveness range of the compounds. Data shown are the Minimum Bactericidal Concentration (MBC) or Minimum Fungicidal Concentration (MFC) (≧99.9% kill) in μg/mL.” left out

[7] = system: Candida albicans (MCC 50319); assay: Antimicrobial activity, MFC, C. albicans MCC 50319; details: 1 h at room temperature
Procedure: as §1, with “The results are tabulated to show the comparison of antimicrobial effectiveness range of the compounds. Data shown are the Minimum Bactericidal Concentration (MBC) or Minimum Fungicidal Concentration (MFC) (≧99.9% kill) in μg/mL.” left out

[8] = system: mouse fibroblast cells (ATCC CCL-1, L929); assay: Cytotoxicity, WST-8 colorimetric assay; details: pH 4 (Sal), 60 min exposure, WST-8 read after 18-20 hours
Procedure: Cytotoxicity is assessed by a colorimetric assay system using the Dojindo™ cell counting kit containing 2-(2-methoxy-4-nitrophenyl)-3-(4-nitrophenyl)-5-(2,4-disulfophenyl)-2H-tetrazolium, monosodium salt (WST-8). In this assay, the WST-8 reagent is bioreduced by cellular dehydrogenases to a formazan product that is highly soluble in tissue culture medium. The orange formazan, which is produced only by live cells, is a direct measure of cell viability and can be read spectrophotometrically (e.g., evaluation of a soluble tetrazolium/formazan assay for cell growth and drug sensitivity in culture using human and other tumor cell lines is described by D. A. Scudiero et al., Cancer Res., 48(17), 4827-33 (1988). Similar approaches for determining the cell viability are known in the art.
In a standard assay, mouse fibroblast cells (ATCC CCL-1, L929), are cultured in Minimum Essential Medium, α-medium supplemented with 10% heat inactivated fetal bovine serum, L-glutamine, penicillin and streptomycin. Cells are trypsinized and counted under the microscope and seeded at 1.5×10^4 total cells per 100 μL per well of a flat-bottom 96-well plate in order to achieve ˜80% confluence after overnight incubation at 37° C. […]
Test articles were prepared as 2-fold serial dilutions and 170 μL of each dilution was added into each of 4-wells (total volume per well=200 μL). […] Absorbance was read at 450 nm with reference wavelength at 750 nm using Molecular Device SpectraMax M5 plate reader. […]
The CT50 value for each compound was calculated from the absorbance values (A450/750) and is defined as the concentration of test article that results in survival of 50% of the cells following treatment. The absorbance A450/750 from each well of untreated cells and from each well within the dilution series was measured. […] Next, a non-linear regression (curve fit) analysis was performed on all the absorbance data measured from the dilution series, including the absorbance data obtained from wells of the untreated control cells. […]

Row | Compound | Minimum Bactericidal Concentration (MBC) (≧99.9% kill) ([1]; pH 4 (Sal)) [µg/mL] | Minimum Bactericidal Concentration (MBC) (≧99.9% kill) ([1]; pH 7 (PBS)) [µg/mL] | Minimum Bactericidal Concentration (MBC) (≧99.9% kill) ([2]; pH 4 (Sal)) [µg/mL] | Minimum Bactericidal Concentration (MBC) (≧99.9% kill) ([2]; pH 7 (PBS)) [µg/mL] | Minimum Fungicidal Concentration (MFC) (≧99.9% kill) ([3]; pH 4 (Sal)) [µg/mL] | Minimum Fungicidal Concentration (MFC) (≧99.9% kill) ([3]; pH 7 (PBS)) [µg/mL] | Minimum Bactericidal Concentration (MBC) (≧99.9% kill) [4] [µg/mL] | Minimum Bactericidal Concentration (MBC) (≧99.9% kill) ([5]; pH 4 (Sal)) [µg/mL] | Minimum Bactericidal Concentration (MBC) (≧99.9% kill) ([5]; pH 7 (PBS)) [µg/mL] | Minimum Bactericidal Concentration (MBC) (≧99.9% kill) ([6]; pH 4 (Sal)) [µg/mL] | Minimum Bactericidal Concentration (MBC) (≧99.9% kill) ([6]; pH 7 (PBS)) [µg/mL] | Minimum Fungicidal Concentration (MFC) (≧99.9% kill) ([7]; pH 4 (Sal)) [µg/mL] | Minimum Fungicidal Concentration (MFC) (≧99.9% kill) ([7]; pH 7 (PBS)) [µg/mL] | CT50 (concentration of test article that results in survival of 50% of the cells) [8] [mM]
1 | 2-(3-Chloro-4,4-dimethyl-2,5-dioxoimidazolidin-1-yl)-N,N,N-trimethylethanaminium chloride [Compound 22-48] | 128 | 4 | >128 | 16 | 1024 | 128 | – | – | – | – | – | – | – | –
2 | CC1(CS(=O)(=O)O)COC(=O)N1Cl (centres unmarked) [Compound 22-01, (3-chloro-4-methyl-2-oxooxazolidin-4-yl)methanesulfonic acid] | 256 | 128 | 256 | 256 | >512 | 1024 | 256 | 2 | 16 | 16 | 16 | 128 | 128 | 1.1
3 | CC1(C[N+](C)(C)C)COC(=O)N1Cl.[Cl-] (centres unmarked) [Compound 22-04, 1-(3-Chloro-4-methyl-2-oxooxazolidin-4-yl)-N,N,N-trimethylmethanaminium chloride] | 16 | – | 64 | – | >256 | – | – | – | – | – | – | – | – | –
4 | CN1C(=O)N(Cl)C(C)(C[N+](C)(C)C)C1=O.[Cl-] (centres unmarked) [Compound 22-27, 1-(3-chloro-1,4-dimethyl-2,5-dioxoimidazolidin-4-yl)-N,N,N-trimethylmethanaminium chloride] | 16 | – | 64 | – | >256 | – | – | – | – | – | – | – | – | –
5 | C[N+]1(C)CCC2(CC1)CN(Cl)C(=O)O2.[Cl-] [Compound 22-36, 3-chloro-8,8-dimethyl-2-oxo-1-oxa-3-aza-8-azoniaspiro[4.5]decane chloride] | 256 | 16 | 512 | 32 | – | 256 | – | – | – | – | – | – | – | 0.7
6 | CC[N+](C)(C)CC1(C)COC(=O)N1Cl.[Cl-] (centres unmarked) [Compound 22-38, N-((3-chloro-4-methyl-2-oxooxazolidin-4-yl)methyl)-N,N-dimethylethanaminium chloride] | 16 | 2 | 64 | 4 | – | 8 | – | – | – | – | – | – | – | 0.86
